Common to all, as to assay type: binding
Assay [1] addresses kinases (KINOMEscan panel) (Homo sapiens, UniProt Q04759). To be noted: kinase PRKCQ; NEW KINOMEscan.
Assay [2] concerns the target kinases (KINOMEscan panel) (Homo sapiens, UniProt Q16512). To be noted: NEW KINOMEscan.
Assay [3] concerns the target kinases (KINOMEscan panel) (Homo sapiens, UniProt Q9H3Y6). As to conditions: NEW KINOMEscan.
Assay [4] has as its target kinases (KINOMEscan panel) (Homo sapiens, UniProt P10721, D816H). To be noted: NEW KINOMEscan.
Assay [5] has as its target T1, kinases (KINOMEscan panel) (Homo sapiens, UniProt Q9NRH2).
T1 sequence (Q9NRH2 1-765): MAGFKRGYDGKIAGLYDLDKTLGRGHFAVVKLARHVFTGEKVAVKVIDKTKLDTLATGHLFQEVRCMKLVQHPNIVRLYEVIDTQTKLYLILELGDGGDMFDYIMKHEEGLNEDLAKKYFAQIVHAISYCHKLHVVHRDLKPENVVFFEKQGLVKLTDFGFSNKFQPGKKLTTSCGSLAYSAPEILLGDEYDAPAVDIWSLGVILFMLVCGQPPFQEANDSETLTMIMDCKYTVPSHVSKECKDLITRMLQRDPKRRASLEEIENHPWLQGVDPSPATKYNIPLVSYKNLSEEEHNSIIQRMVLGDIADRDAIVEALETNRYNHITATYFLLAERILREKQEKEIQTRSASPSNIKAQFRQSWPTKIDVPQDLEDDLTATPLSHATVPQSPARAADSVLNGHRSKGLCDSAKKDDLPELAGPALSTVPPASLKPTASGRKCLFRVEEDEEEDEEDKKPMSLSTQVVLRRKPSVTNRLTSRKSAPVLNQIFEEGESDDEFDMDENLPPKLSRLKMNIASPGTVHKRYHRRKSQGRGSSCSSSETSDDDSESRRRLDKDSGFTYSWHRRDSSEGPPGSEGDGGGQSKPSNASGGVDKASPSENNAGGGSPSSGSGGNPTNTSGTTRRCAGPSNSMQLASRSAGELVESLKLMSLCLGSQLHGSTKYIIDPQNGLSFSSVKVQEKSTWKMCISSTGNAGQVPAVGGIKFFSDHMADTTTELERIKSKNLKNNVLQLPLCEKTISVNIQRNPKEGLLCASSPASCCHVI
As to conditions: kinase SNRK; NEW KINOMEscan.

For assay [6], the target named is kinases (KINOMEscan panel) (Homo sapiens, UniProt P42338). As to conditions: PIK3CB; NEW KINOMEscan.
kinases (KINOMEscan panel) (Homo sapiens, UniProt P42338), sequence (P42338 whole entry): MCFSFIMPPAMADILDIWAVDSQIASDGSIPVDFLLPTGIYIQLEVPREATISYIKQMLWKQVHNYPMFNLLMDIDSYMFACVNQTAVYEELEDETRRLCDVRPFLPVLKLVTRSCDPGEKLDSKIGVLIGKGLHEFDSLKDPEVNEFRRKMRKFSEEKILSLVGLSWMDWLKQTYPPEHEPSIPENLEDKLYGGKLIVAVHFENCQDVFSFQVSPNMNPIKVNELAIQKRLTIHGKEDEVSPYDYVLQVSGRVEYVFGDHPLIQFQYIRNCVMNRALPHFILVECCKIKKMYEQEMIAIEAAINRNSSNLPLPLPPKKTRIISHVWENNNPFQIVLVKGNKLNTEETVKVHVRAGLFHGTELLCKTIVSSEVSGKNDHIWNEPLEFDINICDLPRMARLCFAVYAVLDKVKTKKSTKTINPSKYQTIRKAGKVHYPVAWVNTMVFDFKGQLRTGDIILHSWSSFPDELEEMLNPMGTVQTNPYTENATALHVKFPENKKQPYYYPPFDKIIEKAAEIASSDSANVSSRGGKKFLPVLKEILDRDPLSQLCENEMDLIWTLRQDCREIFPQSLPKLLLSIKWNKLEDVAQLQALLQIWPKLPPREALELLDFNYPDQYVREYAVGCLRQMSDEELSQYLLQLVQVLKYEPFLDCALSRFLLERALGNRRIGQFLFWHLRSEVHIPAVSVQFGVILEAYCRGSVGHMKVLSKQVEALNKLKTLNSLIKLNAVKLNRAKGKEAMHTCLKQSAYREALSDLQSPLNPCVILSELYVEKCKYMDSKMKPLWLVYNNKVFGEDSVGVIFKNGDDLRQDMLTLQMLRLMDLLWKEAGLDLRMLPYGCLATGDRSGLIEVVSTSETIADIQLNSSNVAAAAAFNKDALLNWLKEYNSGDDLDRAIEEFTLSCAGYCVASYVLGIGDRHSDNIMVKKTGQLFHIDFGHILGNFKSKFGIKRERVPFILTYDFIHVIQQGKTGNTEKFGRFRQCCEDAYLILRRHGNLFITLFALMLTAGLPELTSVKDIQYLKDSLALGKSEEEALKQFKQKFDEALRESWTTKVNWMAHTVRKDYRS
The target of assay [7] is T2, kinases (KINOMEscan panel) (Homo sapiens, UniProt O75747).
T2 sequence (O75747 1-1486): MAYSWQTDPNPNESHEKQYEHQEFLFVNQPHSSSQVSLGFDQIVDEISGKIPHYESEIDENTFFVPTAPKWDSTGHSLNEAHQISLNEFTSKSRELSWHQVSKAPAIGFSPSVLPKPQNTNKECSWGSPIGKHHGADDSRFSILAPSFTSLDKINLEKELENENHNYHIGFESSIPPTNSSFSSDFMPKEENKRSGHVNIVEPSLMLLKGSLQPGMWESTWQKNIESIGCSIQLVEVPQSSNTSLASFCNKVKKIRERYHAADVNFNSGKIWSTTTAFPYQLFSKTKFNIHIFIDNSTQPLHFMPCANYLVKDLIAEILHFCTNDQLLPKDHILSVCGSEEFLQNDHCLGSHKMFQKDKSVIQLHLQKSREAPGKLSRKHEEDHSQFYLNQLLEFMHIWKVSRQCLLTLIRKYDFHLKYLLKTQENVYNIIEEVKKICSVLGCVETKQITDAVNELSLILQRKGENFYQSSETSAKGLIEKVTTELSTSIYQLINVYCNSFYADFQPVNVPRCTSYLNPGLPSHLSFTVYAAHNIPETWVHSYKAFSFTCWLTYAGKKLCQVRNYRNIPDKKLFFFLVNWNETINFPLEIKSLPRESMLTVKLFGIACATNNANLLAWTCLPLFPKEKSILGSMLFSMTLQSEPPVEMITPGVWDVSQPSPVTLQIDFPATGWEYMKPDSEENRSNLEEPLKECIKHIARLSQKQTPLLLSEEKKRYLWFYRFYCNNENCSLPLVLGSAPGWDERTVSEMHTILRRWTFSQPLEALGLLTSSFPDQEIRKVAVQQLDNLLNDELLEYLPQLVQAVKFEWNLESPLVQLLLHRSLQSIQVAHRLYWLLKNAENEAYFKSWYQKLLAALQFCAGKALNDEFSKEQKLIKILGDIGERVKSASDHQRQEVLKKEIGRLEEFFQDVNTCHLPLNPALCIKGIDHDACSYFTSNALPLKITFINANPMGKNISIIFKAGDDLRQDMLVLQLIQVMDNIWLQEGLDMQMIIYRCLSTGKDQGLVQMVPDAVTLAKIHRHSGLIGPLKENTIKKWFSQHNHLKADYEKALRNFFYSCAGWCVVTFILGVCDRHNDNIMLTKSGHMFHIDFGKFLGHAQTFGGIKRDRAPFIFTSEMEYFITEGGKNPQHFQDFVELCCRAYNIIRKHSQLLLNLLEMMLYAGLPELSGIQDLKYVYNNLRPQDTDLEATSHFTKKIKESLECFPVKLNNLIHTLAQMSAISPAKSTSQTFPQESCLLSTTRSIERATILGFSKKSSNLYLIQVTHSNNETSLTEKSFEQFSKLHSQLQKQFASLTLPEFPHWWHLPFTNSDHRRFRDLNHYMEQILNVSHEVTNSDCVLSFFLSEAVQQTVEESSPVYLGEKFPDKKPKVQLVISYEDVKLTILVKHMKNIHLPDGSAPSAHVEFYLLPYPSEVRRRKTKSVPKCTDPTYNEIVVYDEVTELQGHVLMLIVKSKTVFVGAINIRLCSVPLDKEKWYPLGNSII
As to conditions: NEW KINOMEscan.

Assay [8] deals with T3, kinases (KINOMEscan panel) (Homo sapiens, UniProt Q9HBY8).
T3 sequence (Q9HBY8 1-367): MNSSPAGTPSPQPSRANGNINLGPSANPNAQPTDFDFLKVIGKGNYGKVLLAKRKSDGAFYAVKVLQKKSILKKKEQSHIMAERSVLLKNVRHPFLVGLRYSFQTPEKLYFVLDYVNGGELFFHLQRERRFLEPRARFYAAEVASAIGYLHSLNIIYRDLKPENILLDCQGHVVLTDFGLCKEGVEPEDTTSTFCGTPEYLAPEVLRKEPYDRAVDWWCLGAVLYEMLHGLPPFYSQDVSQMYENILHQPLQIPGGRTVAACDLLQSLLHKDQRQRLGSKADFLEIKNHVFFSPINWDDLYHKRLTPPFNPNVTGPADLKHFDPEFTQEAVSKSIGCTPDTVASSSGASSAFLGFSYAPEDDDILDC
To be noted: NEW KINOMEscan.

Each structure is given as a SMILES string.

kinases (KINOMEscan panel) (Homo sapiens, UniProt P10721, D816H), sequence (P10721 26-976 D816H): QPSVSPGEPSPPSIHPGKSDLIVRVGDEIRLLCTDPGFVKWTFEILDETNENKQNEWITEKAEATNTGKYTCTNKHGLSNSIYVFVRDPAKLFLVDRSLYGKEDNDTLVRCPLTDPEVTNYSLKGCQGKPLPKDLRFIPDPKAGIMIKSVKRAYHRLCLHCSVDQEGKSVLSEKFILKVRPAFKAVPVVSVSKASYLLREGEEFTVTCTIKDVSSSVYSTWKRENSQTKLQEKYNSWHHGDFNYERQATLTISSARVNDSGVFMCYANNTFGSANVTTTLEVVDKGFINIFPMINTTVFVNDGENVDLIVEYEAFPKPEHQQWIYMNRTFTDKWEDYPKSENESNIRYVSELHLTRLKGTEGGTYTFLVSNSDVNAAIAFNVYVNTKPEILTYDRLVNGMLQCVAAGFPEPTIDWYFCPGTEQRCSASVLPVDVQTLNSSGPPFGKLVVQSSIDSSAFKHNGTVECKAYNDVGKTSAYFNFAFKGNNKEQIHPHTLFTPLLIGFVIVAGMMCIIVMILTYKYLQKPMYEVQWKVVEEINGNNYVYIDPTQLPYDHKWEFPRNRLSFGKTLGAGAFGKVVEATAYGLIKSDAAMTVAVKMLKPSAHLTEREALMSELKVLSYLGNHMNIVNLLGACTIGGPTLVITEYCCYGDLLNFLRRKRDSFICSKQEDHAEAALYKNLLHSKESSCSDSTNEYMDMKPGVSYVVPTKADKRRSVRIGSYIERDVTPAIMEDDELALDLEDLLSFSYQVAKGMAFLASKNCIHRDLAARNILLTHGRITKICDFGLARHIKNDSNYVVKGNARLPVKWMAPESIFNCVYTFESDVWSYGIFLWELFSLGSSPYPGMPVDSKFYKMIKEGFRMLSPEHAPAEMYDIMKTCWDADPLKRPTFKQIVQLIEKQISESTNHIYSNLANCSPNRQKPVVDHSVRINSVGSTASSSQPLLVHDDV
kinases (KINOMEscan panel) (Homo sapiens, UniProt Q9H3Y6), sequence (Q9H3Y6 whole entry): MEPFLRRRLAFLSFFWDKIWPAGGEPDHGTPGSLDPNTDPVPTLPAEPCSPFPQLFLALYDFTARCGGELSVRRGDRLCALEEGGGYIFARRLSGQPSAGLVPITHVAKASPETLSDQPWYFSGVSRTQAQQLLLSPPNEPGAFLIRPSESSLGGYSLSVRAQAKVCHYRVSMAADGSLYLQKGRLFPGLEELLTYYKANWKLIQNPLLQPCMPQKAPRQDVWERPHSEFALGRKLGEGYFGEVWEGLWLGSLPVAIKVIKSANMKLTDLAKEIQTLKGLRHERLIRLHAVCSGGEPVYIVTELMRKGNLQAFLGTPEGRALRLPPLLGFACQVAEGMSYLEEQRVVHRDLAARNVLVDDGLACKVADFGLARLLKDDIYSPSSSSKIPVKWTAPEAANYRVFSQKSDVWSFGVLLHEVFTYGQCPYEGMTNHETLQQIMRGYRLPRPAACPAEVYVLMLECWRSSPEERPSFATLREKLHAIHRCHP
kinases (KINOMEscan panel) (Homo sapiens, UniProt Q16512), sequence (Q16512 whole entry): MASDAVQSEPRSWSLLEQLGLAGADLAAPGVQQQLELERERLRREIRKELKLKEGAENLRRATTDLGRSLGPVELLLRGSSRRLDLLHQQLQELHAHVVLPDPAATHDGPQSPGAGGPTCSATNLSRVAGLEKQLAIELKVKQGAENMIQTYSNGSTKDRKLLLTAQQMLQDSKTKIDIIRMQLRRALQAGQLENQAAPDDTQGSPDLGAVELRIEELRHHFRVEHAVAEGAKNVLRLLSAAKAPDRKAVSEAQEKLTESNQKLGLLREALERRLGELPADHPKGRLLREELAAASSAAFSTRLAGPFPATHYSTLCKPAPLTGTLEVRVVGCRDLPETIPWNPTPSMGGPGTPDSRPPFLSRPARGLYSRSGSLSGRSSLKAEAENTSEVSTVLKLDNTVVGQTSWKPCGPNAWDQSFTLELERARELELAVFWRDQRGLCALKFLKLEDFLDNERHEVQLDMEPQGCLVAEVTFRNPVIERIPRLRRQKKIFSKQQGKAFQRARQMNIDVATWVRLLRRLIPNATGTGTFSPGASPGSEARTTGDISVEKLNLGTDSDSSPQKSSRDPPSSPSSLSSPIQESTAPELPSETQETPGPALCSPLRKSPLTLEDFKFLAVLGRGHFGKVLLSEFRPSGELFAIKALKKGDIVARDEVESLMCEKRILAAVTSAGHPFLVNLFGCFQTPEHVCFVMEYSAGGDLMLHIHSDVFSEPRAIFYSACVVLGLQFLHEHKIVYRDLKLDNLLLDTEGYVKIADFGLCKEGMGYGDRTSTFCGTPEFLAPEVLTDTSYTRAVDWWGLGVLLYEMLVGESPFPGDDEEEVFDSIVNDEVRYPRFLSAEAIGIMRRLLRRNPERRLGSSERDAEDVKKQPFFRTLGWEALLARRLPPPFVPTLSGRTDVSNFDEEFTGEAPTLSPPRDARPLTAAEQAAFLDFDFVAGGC
kinases (KINOMEscan panel) (Homo sapiens, UniProt Q04759), sequence (Q04759 whole entry): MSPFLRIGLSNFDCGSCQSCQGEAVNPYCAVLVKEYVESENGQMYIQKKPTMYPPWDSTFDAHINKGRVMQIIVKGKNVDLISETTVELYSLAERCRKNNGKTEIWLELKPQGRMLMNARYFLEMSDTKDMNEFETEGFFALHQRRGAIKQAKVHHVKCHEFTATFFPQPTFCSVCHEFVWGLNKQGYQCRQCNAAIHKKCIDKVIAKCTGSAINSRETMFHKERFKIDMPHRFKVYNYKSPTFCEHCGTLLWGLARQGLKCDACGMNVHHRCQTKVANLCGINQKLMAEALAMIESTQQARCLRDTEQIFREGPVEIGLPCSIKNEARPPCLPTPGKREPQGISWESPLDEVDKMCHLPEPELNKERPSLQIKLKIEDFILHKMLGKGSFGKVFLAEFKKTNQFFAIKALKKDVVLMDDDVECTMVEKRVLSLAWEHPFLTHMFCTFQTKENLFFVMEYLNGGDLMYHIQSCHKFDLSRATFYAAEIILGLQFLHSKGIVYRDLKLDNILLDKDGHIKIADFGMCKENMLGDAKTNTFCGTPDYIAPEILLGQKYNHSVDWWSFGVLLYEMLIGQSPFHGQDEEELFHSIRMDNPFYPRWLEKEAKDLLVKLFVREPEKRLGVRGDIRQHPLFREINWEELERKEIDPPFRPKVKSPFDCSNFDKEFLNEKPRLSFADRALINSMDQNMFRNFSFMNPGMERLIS

As for `Cc1cccc(-c2nc(Nc3ccc4nn(C)cc4c3)c3ccccc3n2)n1` [NK167], in assay [1], the “KINOMEscan PRKCQ” value is listed as 0. Also, the “KINOMEscan PKN1” value in assay [2] is recorded as 0. Also, in assay [3], the “KINOMEscan SRMS” value came out at 21. For the same compound, the “KINOMEscan KIT(D816H)” value in assay [4] came to 13. The “KINOMEscan SNRK” value in assay [5] stood at 6. Further, the “KINOMEscan PIK3CB” value in assay [6] is 0. Also, the “KINOMEscan PIK3C2G” value in assay [7] amounted to 0. Further, the “KINOMEscan SGK2” value in assay [8] is on record as 0.
For `Cc1cccc(-c2nc(N(C)c3ccc4ncsc4c3)c3ccccc3n2)n1` [NK-161], in assay [1], the “KINOMEscan PRKCQ” value came out at 7. In addition, the “KINOMEscan PKN1” value in assay [2] is 0. The “KINOMEscan SRMS” value in assay [3] was 26. In addition, the “KINOMEscan KIT(D816H)” value in assay [4] was 16. Moreover, the “KINOMEscan SNRK” value in assay [5] turned out to be 7. Further, the “KINOMEscan PIK3CB” value in assay [6] is reported as 0. Moreover, in assay [7], the “KINOMEscan PIK3C2G” value is recorded as 0. In assay [8], the “KINOMEscan SGK2” value is listed as 15.

(Values after PMC9851200, “Multiparameter phenotypic screening for endogenous TFEB and TFE3 translocation identifies novel chemical series modulating lysosome function” (Autophagy, 2022).)
